Ki data for eleven compounds are collected here from patent publication US4715994A, “Novel antibacterial agents and potentiators of carbapenem antibiotics” (Merck & Co., Inc., priority 1986, dated 1987).

The target in this test is T1, dehydropeptidase-I (renal dipeptidase, EC 3.4.13.11) (Sus scrofa, UniProt P22412).
T1 construct: isolated from hog kidneys; from tissue; host or cells: hog kidney, solubilized and lyophilized enzyme preparation
T1 sequence (P22412 17-409): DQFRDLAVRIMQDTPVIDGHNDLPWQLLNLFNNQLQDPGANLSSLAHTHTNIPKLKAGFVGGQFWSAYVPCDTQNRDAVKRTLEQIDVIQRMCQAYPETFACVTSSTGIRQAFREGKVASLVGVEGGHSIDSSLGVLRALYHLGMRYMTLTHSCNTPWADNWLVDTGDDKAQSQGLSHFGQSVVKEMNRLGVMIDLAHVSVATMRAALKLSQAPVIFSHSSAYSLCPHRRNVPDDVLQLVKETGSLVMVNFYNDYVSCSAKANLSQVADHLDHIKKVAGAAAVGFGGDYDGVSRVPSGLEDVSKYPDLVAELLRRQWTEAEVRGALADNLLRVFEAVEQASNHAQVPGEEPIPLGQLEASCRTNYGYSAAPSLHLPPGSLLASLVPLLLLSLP
Description: Renal dehydropeptidase I inhibition (hydrolysis of glycyldehydrophenylalanine). The format is biochemical, hog. As for the experimental part:
This measured the ability of compounds to inhibit hydrolysis of glycyldehydrophenylalanine (GDP) by a solubilized preparation of […] isolated from hog kidneys. The procedure is as follows: to a 1 ml system containing 50 mM "MOPS" (3-(N-morpholino)propanesulfonic acid) buffer, pH 7.1, is added 5 μg of lyophilized enzyme, and the test compound at a final concentration of 0.1 mM. After a five minute incubation at 37° C., GDP is added to a final concentration of 0.05 mM. […] Inhibition of the enzyme is gauged by comparison to a standard run containing no inhibitor and is expressed as the inhibitor binding constant, Ki.

Where [1] appears, read: read-out: RENAL DEHYDROPEPTIDASE I INHIBITION Ki.

Broadly, the Ki is the dissociation constant of the complex between target and ligand, obtained from inhibition or displacement.

The structures appear in SMILES notation. Like-named read-outs stand apart in the source and are kept apart here.

Turning to `CC(N)P(=O)(O)C/C(=C\CCc1ccccc1)C(=O)O` (stereo not drawn) [DL, R5 phenethyl, Z, 1-Aminoethyl-(2-carboxy-5-phenyloct-2-enyl)phosphinic acid (E and Z isomers)], the Ki under setting [1] came out at 16 nM.
In the case of `C=C(CP(=O)(O)[C@H](C)N)C(=O)O` [L, R5 H], the inhibition constant Ki is 27 nM.
As to `CC(N)P(=O)(O)C/C(=C/CCc1ccccc1)C(=O)O` (stereo not drawn) [DL, R5 phenethyl, E], the Ki under setting [1] came to 7 nM.
Take `CCCCCC=C(CP(=O)(O)C(C)N)C(=O)O` (racemic) [DL, R5 n-pentyl, (E, Z isomers), 1-Aminoethyl-(2-carboxy-oct-2-enyl)phosphinic acid (E/Z mixture)]: under setting [1], the Ki stood at 5.8 nM.
In turn, `CC(CP(=O)(O)[C@H](C)N)C(=O)O` (stereo partly drawn) [L, R2 methyl, 1-L-Aminoethyl-(2-carboxy-1-propyl)phosphinic acid] displayed an inhibitory constant (Ki) of 10 nM.
Consider `CC(CP(=O)(O)C(C)N)C(=O)O` (stereo not drawn) [DL, R2 methyl, R3 H, 1-Aminoethyl-(2-carboxy-1-propyl)phosphinic acid], for which the inhibition constant (Ki) turned out to be 10 nM.
The same measure, in the same setting: then `C=C(CP(=O)(O)[C@@H](C)N)C(=O)O` [D, R5 H], with 230 nM.
As for `CC(N)P(=O)(O)CC(CCCc1ccncc1)C(=O)O` (stereo not drawn) [DL, R2 4-pyridylpropyl, 1-Aminoethyl-[2-carboxy-5-(4-pyridyl)-1-n-pentyl]-phosphinic acid], the Ki under setting [1] was 12 nM.
Regarding `C[C@H](N)P(=O)(O)CC(CCCc1ccccc1)C(=O)O` (some centres unmarked) [L, R2 phenylpropyl], the inhibition constant (Ki) is 27 nM.
The same measure, in the same setting: then `CC(CP(=O)(O)[C@@H](C)N)C(=O)O` (stereo partly drawn) [D, R2 methyl, R3 H, 1-D-Aminoethyl-(2-carboxy-1-propyl)phosphinic acid], with 140 nM.
Consider `C[C@@H](N)P(=O)(O)CC(CCCc1ccccc1)C(=O)O` (some centres unmarked) [D, R2 phenylpropyl], for which the inhibition constant (Ki) under setting [1] was 1000 nM.
